The values that follow come from paper PMC13077603, “Fluorine‐18‐Labeled Nucleotide Analogs Targeting Ecto‐5'‐Nucleotidase (CD73) for Positron Emission Tomography Imaging of Solid Tumors” (Angewandte Chemie (International Ed. in English), 2026).

The Ki is the equilibrium dissociation constant of an inhibitor or competing ligand from its target.

Data set [1] concerns the target T1, CD73 in human breast cancer samples (Homo sapiens, UniProt P21589).
T1 construct: cryosections of breast tumor samples as well as sentinel lymph node samples were investigated; from tissue; host or cells: primary breast tumors and sentinel lymph nodes of two patients, 6 µm cryosections
T1 sequence (P21589 27-574): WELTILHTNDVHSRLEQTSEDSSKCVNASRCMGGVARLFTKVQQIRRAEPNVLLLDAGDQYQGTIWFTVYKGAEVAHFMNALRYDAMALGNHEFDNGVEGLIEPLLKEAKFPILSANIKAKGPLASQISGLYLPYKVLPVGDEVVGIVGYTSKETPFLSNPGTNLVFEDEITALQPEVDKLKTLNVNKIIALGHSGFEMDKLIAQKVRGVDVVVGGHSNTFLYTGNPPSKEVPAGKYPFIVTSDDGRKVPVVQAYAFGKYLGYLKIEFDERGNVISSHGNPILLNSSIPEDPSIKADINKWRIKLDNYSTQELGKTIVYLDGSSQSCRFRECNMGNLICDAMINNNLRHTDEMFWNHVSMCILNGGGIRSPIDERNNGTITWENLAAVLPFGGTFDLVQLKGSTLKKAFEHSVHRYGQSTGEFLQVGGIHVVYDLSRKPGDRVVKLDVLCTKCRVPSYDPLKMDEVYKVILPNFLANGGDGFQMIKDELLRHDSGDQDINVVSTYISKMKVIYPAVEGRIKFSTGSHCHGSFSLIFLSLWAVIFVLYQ
The experiment in a line: Autoradiography on human breast tumor and sentinel lymph node cryosections. The settings on record: autoradiography, cryosections. It counts as binding. As for the experimental part: To test specific radiotracer binding to its target, we performed in situ autoradiography. [^18F]2 was applied onto cryosections of neighboring slides of tumor tissues from primary breast tumors from patient X (Figure 4A) and patient Y (Figure 4B), used for immunohistochemistry and AMPase activity determination. Sentinel LN from patient Y was incubated with [^18F]1 (Figure 4C).
FIGURE 4 Autoradiographic imaging of ^18F‐labeled CD73 tracer binding to tissue samples of breast tumors and sentinel lymph nodes. Primary breast tumor (A, B) and LN cryosections (C) were incubated with [^18F]2 or [^18F]1 in the absence (control) and in the presence of an unlabeled CD73 inhibitor, AMPCP (13) or JMS04‐14 (14), as indicated. The samples were processed for autoradiographic analysis, as described in the materials and methods section. The white dotted lines outline the tissue boundaries. (D). Structures of CD73 inhibitors applied as blockers in this study.
For the assessment of ^18F-labeled CD73 tracer binding to human tissues, cryosections of breast tumor samples as well as sentinel lymph node samples were investigated. Cryosections were thawed and pre-incubated for 15 min at room temperature in 2-[4-(2-hydroxyethyl)piperazin-1-yl]ethanesulfonic acid buffer (HEPES). […] Blocking compounds were prepared according to the molar activity of the radiolabeled tracers [^18F]MRS-4648 and [^18F]PSB-19427 aiming at a 1000-fold excess of the blocking agent. For each tissue sample, neighboring sections were incubated for 20 min at room temperature with a mixture of 50µL of the radiotracer and 50µL of the classical CD73 inhibitor AMPCP (25 nmol, in PBS), or JMS0414 (61 nmol, in HEPES), or HEPES buffer respectively. After incubation, slides were washed three times with PBS and Aqua bidest, mounted on a slide holder for the image acquisition, and covered with protection and scintillation foils. Digital autoradiography measurement of each slide was performed for 60 minutes (Micro Imager, Biospace, France). Acquired data were corrected for radioactive decay in reference to the start of the acquisition as well as the start of the incubation.

Data set [2] in a line: Stability in mouse liver microsomes (MLM). Format: in vitro ADME. The settings on record: after 90 min of coincubation, 5 µM compound, 37 °C. The method, then:
An aqueous buffer of 75 mM PBS, 12.5 mM MgCl2, 0.6 mM NADPH, 1 mg/mL mouse liver microsomes and 5 µM of the respective compound was prepared. 200 µL of these samples were incubated for 90 min at 37 °C and […]. Afterward, acetonitrile/methanol (400 µL, 1:1) was added, and the samples were cooled to 0 °C for 10 min. 600 µL buffer was added and the solution was centrifuged for 15 min at 17,880 g. The supernatant was centrifuged again for 15 min at 17,880 g and 4 °C. The obtained solution was diluted with H2O/CH3CN/CH3OH (1:1:1) to a suitable concentration for quantification. Shortly before injection into HPLC, the solution was centrifuged again for 2 min at 17,880 g and 4 °C. The amount of remaining compound in the solution was quantified by ion count in SIM mode via HPLC-MS (CH3CN/water). The injection volume was 50 µL. Every experiment was performed in triplicate.

For data set [3], the target named is T2, Mouse membrane‐bound CD73 (membrane preparation of 4T1.2 breast cancer cell line) (Mus musculus, UniProt Q61503).
T2 construct: endogenous in cells; host or cells: 4T1.2 mouse breast cancer cell line, membrane preparation (as named in the result head)
T2 sequence (Q61503 29-576): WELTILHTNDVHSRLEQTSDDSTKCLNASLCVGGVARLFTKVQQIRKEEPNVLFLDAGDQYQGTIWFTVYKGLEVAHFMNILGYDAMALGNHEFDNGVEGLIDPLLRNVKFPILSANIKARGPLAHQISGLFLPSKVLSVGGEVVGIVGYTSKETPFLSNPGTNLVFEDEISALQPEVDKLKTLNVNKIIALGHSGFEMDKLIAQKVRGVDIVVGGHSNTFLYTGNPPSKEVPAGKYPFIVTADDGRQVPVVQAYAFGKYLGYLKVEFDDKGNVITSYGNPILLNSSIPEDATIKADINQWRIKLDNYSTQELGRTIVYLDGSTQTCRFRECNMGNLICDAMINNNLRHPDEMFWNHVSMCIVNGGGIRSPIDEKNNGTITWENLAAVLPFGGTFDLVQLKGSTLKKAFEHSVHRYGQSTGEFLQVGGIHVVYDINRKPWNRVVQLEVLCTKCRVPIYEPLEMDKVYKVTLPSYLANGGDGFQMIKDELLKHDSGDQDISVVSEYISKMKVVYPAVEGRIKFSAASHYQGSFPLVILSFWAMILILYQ
Description: CD73 enzyme inhibition assay, mouse membrane-bound CD73. It counts as biochemical. Particulars: membrane preparation of mouse 4T1.2 breast cancer cell line, Km 67.6 µM, substrate AMP (5 µM). As for the experimental part:
Both compounds were evaluated for metabolic stability in mouse liver microsomes (MLM) and plasma protein binding (PPB) (Table 1).
(§1) The CD73 enzyme inhibition assay of recombinant soluble CD73, membrane-bound human CD73, soluble rat CD73 and mouse CD73 was performed as previously described.^[16,35^]

Data set [4] addresses T3, Human membrane‐bound CD73 (membrane preparation of MDA‐MB‐231 cell line) (Homo sapiens, UniProt P21589).
T3 construct: endogenous in cells; host or cells: MDA-MB-231 (human triple-negative breast cancer) membrane preparation
T3 sequence (P21589 27-574): T1 sequence (P21589 27-574)
The experiment in a line: CD73 enzyme inhibition assay, human membrane-bound CD73. It counts as biochemical. Particulars: membrane preparation of human TNBC MDA‐MB‐231 cell line, Km 14.8 µM, substrate AMP (5 µM). As for the experimental part:
as §1

Data set [5] has as its target Human serum albumin (HSA) (Homo sapiens, UniProt P02768). Description: Plasma protein binding (human serum albumin binding). Particulars: human serum albumin, read-out: Plasma protein binding (PPB) (converted). Format: in vitro ADME. As for the experimental part:
Human serum albumin (HSA) binding.
Plasma protein binding was determined following previously published procedure.^[38^]

Several values for one entry are separate records, joined by “and”; a condition that tells them apart may be missing. Equal values may be shown once.

Chain of Human serum albumin (HSA) (P02768 25-609): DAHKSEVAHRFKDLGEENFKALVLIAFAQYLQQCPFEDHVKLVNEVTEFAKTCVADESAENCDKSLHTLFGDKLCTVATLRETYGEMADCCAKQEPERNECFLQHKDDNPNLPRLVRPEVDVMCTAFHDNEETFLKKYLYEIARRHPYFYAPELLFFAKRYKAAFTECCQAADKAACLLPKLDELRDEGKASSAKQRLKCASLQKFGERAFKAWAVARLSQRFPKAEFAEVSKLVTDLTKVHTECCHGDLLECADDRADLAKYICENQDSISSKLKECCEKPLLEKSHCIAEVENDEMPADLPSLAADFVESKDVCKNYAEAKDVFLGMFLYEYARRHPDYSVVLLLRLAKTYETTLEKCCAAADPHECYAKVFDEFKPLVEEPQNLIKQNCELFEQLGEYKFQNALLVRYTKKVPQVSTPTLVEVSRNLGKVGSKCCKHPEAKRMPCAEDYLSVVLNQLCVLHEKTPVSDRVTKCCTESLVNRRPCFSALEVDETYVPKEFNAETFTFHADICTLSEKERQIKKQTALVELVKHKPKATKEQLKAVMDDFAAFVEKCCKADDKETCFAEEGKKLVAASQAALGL

`CCCN(Cc1ccc(-c2cn(CC[18F])nn2)cc1)c1nc(Cl)nc2c1ncn2[C@@H]1O[C@H](COP(=O)(O)CP(=O)(O)O)[C@@H](O)[C@H]1O` [[^18F]1, [^18F]-[((2R,3S,4R,5R)-5-{2-chloro-6-[(4-{1-[2-(fluoro)ethyl]-1H-1,2,3-triazol-4-yl}benzyl)-(propyl)amino]-9H-purin-9-yl}-3,4-dihydroxytetrahydrofuran-2-yl)methoxy]methylene-bisphosphonic acid]: in data set [1], the “Tracer binding to CD73 in human breast cancer samples” value is on record as “selectively bind”.

On to `Cn1c(=O)n([C@@H]2O[C@H](COP(=O)(O)CP(=O)(O)O)[C@@H](O)[C@H]2O)cc/c1=N/OCc1ccc(-c2cn(CC[18F])nn2)cc1` [[^18F]2, [^18F]-{[(2R,3S,4R,5R)-5-(4-{[(4-{1-[2-(fluoro)ethyl]-1H-1,2,3-triazol-4-yl}benzyl)-oxy]imino}-3-methyl-2-oxo-3,4-dihydropyrimidin-1(2H)-yl)-3,4-dihydroxytetra-hydrofuran-2-yl]methoxy}methylenebisphosphonic acid], for which the “Tracer binding to CD73 in human breast cancer samples” value in data set [1] was “selectively bind”.

`CCCN(Cc1ccc(-c2cn(CCF)nn2)cc1)c1nc(Cl)nc2c1ncn2[C@@H]1O[C@H](COP(=O)(O)CP(=O)(O)O)[C@@H](O)[C@H]1O` [compound 1]: the “Metabolic stability in mouse liver microsomes (MLM): % decomposition” value in data set [2] is 17 ± 2% and 17%. Also, the Ki in data set [3] stood at 47.8 nM; in data set [4] it was 2.78 nM. Moreover, the fraction unbound in data set [5] was less than 0.01.
